Source: patent US20250368623A1, “PYRIDAZINONE-DERIVED COMPOUNDS FOR THE MODULATION OF MYC AND FOR MEDICAL USES” (GENETIC INTELLIGENCE, INC, priority 2022, published 2025)
Where two headings read alike, the source gives them in different places.

Key:
MDA-MB-231 [1] = assay: Mouse hollow fiber model, TNBC (MDA-MB-231); type: in vivo; conditions: TNBC MDA-MB-231 hollow fibers s.c. in mice; 50 mg/kg orally once daily for five days; modified MTT; vs Day 5 vehicle
Protocol: (§1) The in vivo efficacy of test compounds (e.g., 6-(2,4-dimethylthiazol-5-yl)-2-((1-(pyrido[2,3-d]pyrimidin-4-yl)piperidin-4-yl)methyl)pyridazin-3(2H)-one) on cancer cells is determined using the mouse hollow fiber model established at the National Cancer Institute (NCI). Triple negative breast cancer (TNBC) (MDA-MB-231), pancreatic cancer (Mia-PaCa-2), and liver cancer (HepG2) cells are added to differently colored hollow fibers (KrosoFlo@Implant membrane, Green: Lot No.: 20051617, Blue: Lot No.: 20008858, White: Lot No.: 20051615) and sealed at both ends. Three hollow fibers each containing a different cancer line are surgically implanted subcutaneously into both the left and right flanks of mice (total of six hollow fibers per mouse). Drug treatment is initiated on Day 0, three days post implantation of fibers. Each treatment group has 2 mice (4 hollow fibers per cancer type): Group 1: Vehicle control; Group 2: Gemcitabine control dosed intraperitoneally (i.p.) at 50 mg/kg once every three days; Group 3: Test compound dosed orally at 50 mg/kg once daily for five days. […] Mean % net cell growth is calculated using the formula [(mean OD(day5)−mean OD(day0))/(mean OD(day0))×100%]. Mean % inhibition of cell growth due to treatment is calculated relative to the mean % net cell growth of the Day 5 vehicle control for the particular cancer line.

Mia-PaCa-2 = assay: Mouse hollow fiber model, pancreatic cancer (Mia-PaCa-2); type: in vivo; conditions: pancreatic cancer Mia-PaCa-2 hollow fibers s.c. in mice; 50 mg/kg orally once daily for five days; modified MTT; vs Day 5 vehicle
Protocol: as §1

HepG2 = assay: Mouse hollow fiber model, liver cancer (HepG2); type: in vivo; conditions: liver cancer HepG2 hollow fibers s.c. in mice; 50 mg/kg orally once daily for five days; modified MTT; vs Day 5 vehicle
Protocol: as §1

[2] = Body weight and clinical signs in the mouse hollow fiber study; type: in vivo; conditions: mice, 50 mg/kg orally once daily for 5 days
Protocol: as §1, with “line. […]” for “line.”

MDA-MB-231 [3] = assay: Mouse xenograft model of TNBC (MDA-MB-231), tumor volume and histopathology; type: in vivo
Protocol: (§2) The in vivo efficacy of test compounds (e.g., 6-(2,4-dimethylthiazol-5-yl)-2-((1-(pyrido[2,3-d]pyrimidin-4-yl)piperidin-4-yl)methyl)pyridazin-3(2H)-one) on cancer cells is determined using a mouse xenograft model of TNBC (MDA-MB-231). 5×10^6 MDA-MB-231 cells (in 0.2 ml of FBS-free medium containing 50% Matrigel) are injected into the subcutaneous tissue of each mouse. Treatment is initiated (Day 0) when the average tumor volume reaches 100 mm^3. Tumor bearing mice are treated with vehicle and different doses of test compound (15 mg/kg, 35 mg/kg, 50 mg/kg, and 100 mg/kg) orally, once daily, for 3 weeks. Tumor volumes (mm^3) are measured post-implantation of cells once every 2-3 days throughout the study. At the end of the treatment period, a portion of the tumor tissue is excised and homogenized to analyze the levels of MYC biomarker using ELISA. Blood samples are collected from mice treated with test compound 8 hours after the final dose.

[4] = Plasma concentration of test compound in xenograft mice; type: in vivo, mouse; conditions: for concentration at 8 h: mouse, plasma, oral, tumor bearing mice, read-out: Test compound concentrations in plasma 8 h after last dose, Mean ± SD
Protocol: as §2

MYC = MYC biomarker in tumor homogenate by ELISA, xenograft mice; type: in vivo, mouse; conditions: for MYC protein levels in tumor homogenate, Mean ± SD: ELISA, vehicle control 41.93 ± 5.38
Protocol: as §2

[5] = Body weight and clinical signs in the mouse xenograft study; type: in vivo; conditions: 15-100 mg/kg orally once daily for 3 weeks, throughout the study
Protocol: as §2

[6] = 15-100 mg/kg orally once daily for 3 weeks
[7] = 15 mg/kg orally once daily for 3 weeks
[8] = 35 mg/kg orally once daily for 3 weeks
[9] = 50 mg/kg orally once daily for 3 weeks
[10] = 100 mg/kg orally once daily for 3 weeks

## Cc1nc(C)c(-c2ccc(=O)n(CC3CCN(c4ncnc5ncccc45)CC3)n2)s1 [test compound, 6-(2,4-dimethylthiazol-5-yl)-2-((1-(pyrido[2,3-d]pyrimidin-4-yl)piperidin-4-yl)methyl)pyridazin-3(2H)-one]
MDA-MB-231 [1]
  growth inhibition (mean % inhibition of cell growth): 88.2%
Mia-PaCa-2
  growth inhibition (mean % inhibition of cell growth): 63.0%
HepG2
  growth inhibition (mean % inhibition of cell growth): 28.1%
[2]
  changes in body weight versus the vehicle-treated group: no significant changes
MDA-MB-231 [3]; 15 mg/kg orally once daily, Day 0
  Tumor volume, Mean: 93 mm^3
MDA-MB-231 [3]; 15 mg/kg orally once daily, Day 2
  Tumor volume, Mean: 137 mm^3
MDA-MB-231 [3]; 15 mg/kg orally once daily, Day 5
  Tumor volume, Mean: 212 mm^3
MDA-MB-231 [3]; 15 mg/kg orally once daily, Day 8
  Tumor volume, Mean: 330 mm^3
MDA-MB-231 [3]; 15 mg/kg orally once daily, Day 10
  Tumor volume, Mean: 435 mm^3
MDA-MB-231 [3]; 15 mg/kg orally once daily, Day 12
  Tumor volume, Mean: 534 mm^3
MDA-MB-231 [3]; 15 mg/kg orally once daily, Day 14
  Tumor volume, Mean: 749 mm^3
MDA-MB-231 [3]; 15 mg/kg orally once daily, Day 16
  Tumor volume, Mean: 921 mm^3
MDA-MB-231 [3]; 15 mg/kg orally once daily, Day 19
  Tumor volume, Mean: 1157 mm^3
MDA-MB-231 [3]; 15 mg/kg orally once daily, Day 21
  Tumor volume, Mean: 1494 mm^3
MDA-MB-231 [3]; 35 mg/kg orally once daily, Day 0
  Tumor volume, Mean: 92 mm^3
MDA-MB-231 [3]; 35 mg/kg orally once daily, Day 2
  Tumor volume, Mean: 129 mm^3
MDA-MB-231 [3]; 35 mg/kg orally once daily, Day 5
  Tumor volume, Mean: 191 mm^3
MDA-MB-231 [3]; 35 mg/kg orally once daily, Day 8
  Tumor volume, Mean: 307 mm^3
MDA-MB-231 [3]; 35 mg/kg orally once daily, Day 10
  Tumor volume, Mean: 390 mm^3
MDA-MB-231 [3]; 35 mg/kg orally once daily, Day 12
  Tumor volume, Mean: 485 mm^3
MDA-MB-231 [3]; 35 mg/kg orally once daily, Day 14
  Tumor volume, Mean: 739 mm^3
MDA-MB-231 [3]; 35 mg/kg orally once daily, Day 16
  Tumor volume, Mean: 897 mm^3
MDA-MB-231 [3]; 35 mg/kg orally once daily, Day 19
  Tumor volume, Mean: 1101 mm^3
MDA-MB-231 [3]; 35 mg/kg orally once daily, Day 21
  Tumor volume, Mean: 1459 mm^3
MDA-MB-231 [3]; 50 mg/kg orally once daily, Day 0
  Tumor volume, Mean: 94 mm^3
MDA-MB-231 [3]; 50 mg/kg orally once daily, Day 2
  Tumor volume, Mean: 123 mm^3
MDA-MB-231 [3]; 50 mg/kg orally once daily, Day 5
  Tumor volume, Mean: 191 mm^3
MDA-MB-231 [3]; 50 mg/kg orally once daily, Day 8
  Tumor volume, Mean: 295 mm^3
MDA-MB-231 [3]; 50 mg/kg orally once daily, Day 10
  Tumor volume, Mean: 368 mm^3
MDA-MB-231 [3]; 50 mg/kg orally once daily, Day 12
  Tumor volume, Mean: 463 mm^3
MDA-MB-231 [3]; 50 mg/kg orally once daily, Day 14
  Tumor volume, Mean: 716 mm^3
MDA-MB-231 [3]; 50 mg/kg orally once daily, Day 16
  Tumor volume, Mean: 875 mm^3
MDA-MB-231 [3]; 50 mg/kg orally once daily, Day 19
  Tumor volume, Mean: 1078 mm^3
MDA-MB-231 [3]; 50 mg/kg orally once daily, Day 21
  Tumor volume, Mean: 1397 mm^3
MDA-MB-231 [3]; 100 mg/kg orally once daily, Day 0
  Tumor volume, Mean: 88 mm^3
MDA-MB-231 [3]; 100 mg/kg orally once daily, Day 2
  Tumor volume, Mean: 126 mm^3
MDA-MB-231 [3]; 100 mg/kg orally once daily, Day 5
  Tumor volume, Mean: 186 mm^3
MDA-MB-231 [3]; 100 mg/kg orally once daily, Day 8
  Tumor volume, Mean: 290 mm^3
MDA-MB-231 [3]; 100 mg/kg orally once daily, Day 10
  Tumor volume, Mean: 363 mm^3
MDA-MB-231 [3]; 100 mg/kg orally once daily, Day 12
  Tumor volume, Mean: 458 mm^3
MDA-MB-231 [3]; 100 mg/kg orally once daily, Day 14
  Tumor volume, Mean: 652 mm^3
MDA-MB-231 [3]; 100 mg/kg orally once daily, Day 16
  Tumor volume, Mean: 782 mm^3
MDA-MB-231 [3]; 100 mg/kg orally once daily, Day 19
  Tumor volume, Mean: 933 mm^3
MDA-MB-231 [3]; 100 mg/kg orally once daily, Day 21
  Tumor volume, Mean: 1158 mm^3
MDA-MB-231 [3]; [6]
  Histopathology of tumors compared to the vehicle: dose-dependent decrease in tumor cells, increase in necrosis and decrease in blood vessel formation
  mean tumor volumes compared to the vehicle control on day 21: dose-dependent decreases
[4]; [6]
  concentrations of test compound in the plasma, trend with dose: dose-dependent increases
[4]; [7]
  concentration at 8 h: 10.3 ± 1.7 ng/mL
[4]; [8]
  concentration at 8 h: 42.6 ± 29.1 ng/mL
[4]; [9]
  concentration at 8 h: 59.4 ± 21.9 ng/mL
[4]; [10]
  concentration at 8 h: 230 ± 111 ng/mL
MYC; [7]
  MYC protein levels in tumor homogenate, Mean ± SD: 35.70 ± 2.45 ng/mg tumor homogenate
MYC; [8]
  MYC protein levels in tumor homogenate, Mean ± SD: 29.55 ± 2.93 ng/mg tumor homogenate
MYC; [9]
  MYC protein levels in tumor homogenate, Mean ± SD: 29.11 ± 4.66 ng/mg tumor homogenate
MYC; [10]
  MYC protein levels in tumor homogenate, Mean ± SD: 23.53 ± 4.28 ng/mg tumor homogenate
MYC; [6]
  MYC biomarker levels in the tumor, trend with dose: dose-dependent decreases
[5]
  Body weight and clinical signs of animals: apparently normal
